Test results as given in US11844793B2, “Liquid formulations of indacaterol” (AeroRx Therapeutics LLC, priority 2020, dated 2023).

Tests used:
Assay type in all cases: physicochemical
[1] = Aqueous solubility of indacaterol and indacaterol maleate in water (orbital shaker, UV-Vis); details: water at pH 7.1
Method: Solubility studies of indacaterol and indacaterol maleate were performed using an orbital shaker method. Excess indacaterol was placed in a glass vial with water. The initial pH of the water was 7.1. Samples were shaken for 12 hours to ensure equilibrium was reached. After the 12 hour period, the vial was removed from the shaker and allowed to settle for 30 minutes. Then, the sample was filtered using a 0.2 μM polyvinylidene fluoride (PVDF) syringe filter; the initial 0.5 mL of filtrate was discarded. The pH was then measured and the concentration of the indacaterol was evaluated by UV-Vis.

[2] = Forced degradation study of indacaterol (RP-HPLC impurities); details: for Total Impurities (%): includes 2% process-related impurity
Method: A degraded sample panel was prepared to identify indacaterol degradation pathways and products. Stress conditions are outlined in Table 1.
One of 6N HCl, 6N NaOH, or 30% H2O2 (aqueous) were added to a suitable volume of 100 μg/mL indacaterol and diluted with water:methanol (50:50, v:v) to achieve a final indacaterol concentration of 10 μg/mL. Samples were stored at ambient temperature. At specified time points, acidic and basic hydrolysis (1 N HCl and 1 N NaOH, respectively) samples were neutralized (H2O2 samples were not quenched) and reversed-phase high performance liquid chromatography (RP-HPLC) was used to quantitate indacaterol impurities. All samples were diluted to 5 μg/mL prior to RP-HPLC analysis. Method parameters are outlined in Table 2.
Total impurities (process-related and product-related) of the indacaterol forced degradation study samples are presented in Table 3. Forced degradation impurity peaks were identified based on their retention time relative (RRT) to the indacaterol peak. Impurity peaks already present in the indacaterol (control group at T0; total peak area approximately 2%) were considered process-related, while additional peaks formed after the degradation were considered product-related.

[3] = Aqueous solubility of indacaterol with varying pH in citrate buffer; details: aqueous citrate buffer 5 mM
Method: Solubility studies of indacaterol in solutions of varying pH were performed using an orbital shaker method. Excess indacaterol was placed in a glass vial with an aqueous citrate buffer (5 mM; prepared from citric acid and NaOH). Samples were shaken for 12 to 24 hours to ensure equilibrium was reached before checking and adjusting the pH (using 1 M HCl and NaOH) and placing samples back into the orbital shaker for an additional 12 hours. This process was repeated up to two times or until the desired pH was obtained. After the desired pH was reached, the vial was removed from the shaker and allowed to settle for 30 minutes. Then, the sample was filtered using a 0.2 μM PVDF syringe filter; the initial 0.5 mL of filtrate was discarded. The pH was then measured and the concentration of the indacaterol was evaluated by UV-Vis.

In the case of `CCc1cc2c(cc1CC)CC(NC[C@H](O)c1ccc(O)c3[nH]c(=O)ccc13)C2` [Indacaterol, (R)-5-[2-(5,6-Diethylindan-2-ylamino)-1-hydroxyethyl]-8hydroxy-1H-quinolin-2-one], the solubility in water [1] is reported as “insoluble”, the “Total Impurities (%)” value ([2]; Acidic Hydrolysis (1M HCl), 15 h, ambient temperature) is reported as 7.25% and the “Total Impurities (%)” value ([2]; Acidic Hydrolysis (1M HCl), T0) is reported as 4.01%. For the same compound, the “Total Impurities (%)” value ([2]; Basic Hydrolysis (1M NaOH), 15 h, ambient temperature) was 7.69%, the “Total Impurities (%)” value ([2]; Basic Hydrolysis (1M NaOH), T0) was 3.99% and the “Total Impurities (%)” value ([2]; Control, T0) was 1.81%. The “Total Impurities (%)” value ([2]; Control, T0, listed as indacaterol) was “approximately 2%”, the “degradation of indacaterol samples in aqueous solutions over time” value ([2]; FIG. 1, forced degradation experiment) was “minimal degradation” and the “Total Impurities (%)” value ([2]; Oxidation (1.2% H2O2), 7 h) was 2.77%. The “Total Impurities (%)” value ([2]; Oxidation (1.2% H2O2), 29 h) was 8.83%, the “Total Impurities (%)” value ([2]; Oxidation (1.2% H2O2), 29 h, listed as indacaterol) was “approximately 9%” and the “Solubility of indacaterol versus pH” value [3] was “increase with decreasing pH”.
